According to BindingDB's records for doi:10.1021/jm970338c (University of Grenoble, 1998):
pIC50: −log10 of the molar value.

Each compound was assayed against Beta-2 adrenergic receptor (Rattus norvegicus) (UniProt P10608) (assay: Inhibition of beta-2 adrenergic receptor isolated from rat lung homogenates).
Beta-2 adrenergic receptor (Rattus norvegicus), sequence (P10608 whole entry, looked up): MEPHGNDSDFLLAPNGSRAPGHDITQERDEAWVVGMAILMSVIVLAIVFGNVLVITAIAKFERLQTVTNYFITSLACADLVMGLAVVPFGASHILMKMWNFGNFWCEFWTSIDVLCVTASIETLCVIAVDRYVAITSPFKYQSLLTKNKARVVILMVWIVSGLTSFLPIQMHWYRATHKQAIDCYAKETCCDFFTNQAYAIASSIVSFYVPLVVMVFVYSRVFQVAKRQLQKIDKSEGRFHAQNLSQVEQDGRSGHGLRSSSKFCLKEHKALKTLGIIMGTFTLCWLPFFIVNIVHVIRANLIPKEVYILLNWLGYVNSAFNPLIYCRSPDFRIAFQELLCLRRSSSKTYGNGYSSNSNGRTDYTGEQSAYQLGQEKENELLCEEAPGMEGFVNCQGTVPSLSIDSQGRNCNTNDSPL

How did the pIC50 turn out when `Cc1ccnc(NCC(O)CON=C(C2CC2)C2CC2)c1` (stereo unspecified) [Dicyclopropyl-methanone O-[2-hydroxy-3-(4-methyl-pyridin-2-ylamino)-propyl]-oxime] was run?
Its pIC50 is under 5.00.

`CC(C)(C)c1ccc(NCC(O)CON=C(C2CC2)C2CC2)cc1` (stereo unspecified) [Dicyclopropyl-methanone O-[3-(4-tert-butyl-phenylamino)-2-hydroxy-propyl]-oxime] was tested. Which pIC50 did it give?
The pIC50 was under 5.00.

How did the pIC50 turn out when `OC(CNc1ccccc1-c1ccccc1)CON=C(C1CC1)C1CC1` (stereo unspecified) [Dicyclopropyl-methanone O-[3-(biphenyl-2-ylamino)-2-hydroxy-propyl]-oxime] was run?
The pIC50 was under 5.00.

How did the pIC50 turn out when `OC(CNc1nc2ccccc2s1)CON=C(C1CC1)C1CC1` (stereo unspecified) [Dicyclopropyl-methanone O-[3-(benzothiazol-2-ylamino)-2-hydroxy-propyl]-oxime] was run?
Its pIC50 is under 5.00.

With `O=C(O)c1ccc(NCC(O)CON=C(C2CC2)C2CC2)cc1` (stereo unspecified) [4-(3-Dicyclopropylmethyleneaminooxy-2-hydroxy-propylamino)-benzoic acid] as the compound, how does the pIC50 read?
The pIC50 was under 5.00.

`CCOC(=O)c1ccc(NCC(O)CON=C(C2CC2)C2CC2)cc1` (stereo unspecified) [4-(3-Dicyclopropylmethyleneaminooxy-2-hydroxy-propylamino)-benzoic acid ethyl ester] was tested. Which pIC50 did it give?
Its pIC50 is under 5.00.

How did the pIC50 turn out when `OC(CNc1ccc(I)cc1)CON=C(C1CC1)C1CC1` (stereo unspecified) [Dicyclopropyl-methanone O-[2-hydroxy-3-(4-iodo-phenylamino)-propyl]-oxime] was run?
Its pIC50 is under 5.00.

`OC(CNc1ccc(Br)cc1)CON=C(C1CC1)C1CC1` (stereo unspecified) [Dicyclopropyl-methanone O-[3-(4-bromo-phenylamino)-2-hydroxy-propyl]-oxime] was tested. Which pIC50 did it give?
The pIC50 was under 5.00.

How did the pIC50 turn out when `CCCCc1ccc(NCC(O)CON=C(C2CC2)C2CC2)cc1` (stereo unspecified) [Dicyclopropyl-methanone O-[3-(4-butyl-phenylamino)-2-hydroxy-propyl]-oxime] was run?
Its pIC50 is under 5.00.

How did the pIC50 turn out when `Cc1ccc(NCC(O)CON=C(C2CC2)C2CC2)cc1` (stereo unspecified) [Dicyclopropyl-methanone O-(2-hydroxy-3-p-tolylamino-propyl)-oxime] was run?
The pIC50 was under 5.00.

How did the pIC50 turn out when `OC(CNc1ccc(Cl)cc1)CON=C(C1CC1)C1CC1` (stereo unspecified) [Dicyclopropyl-methanone O-[3-(4-chloro-phenylamino)-2-hydroxy-propyl]-oxime] was run?
Its pIC50 is under 5.00.

How did the pIC50 turn out when `Cc1ccc(NCC(O)CON=C(C2CC2)C2CC2)nc1` (stereo unspecified) [Dicyclopropyl-methanone O-[2-hydroxy-3-(5-methyl-pyridin-2-ylamino)-propyl]-oxime] was run?
The pIC50 was under 5.00.

How did the pIC50 turn out when `CC(C)(Cc1ccc(N)cc1)NCC(O)CON=C(C1CC1)C1CC1` (stereo unspecified) [Dicyclopropyl-methanone O-{3-[2-(4-amino-phenyl)-1,1-dimethyl-ethylamino]-2-hydroxy-propyl}-oxime] was run?
Its pIC50 is 5.70.

How did the pIC50 turn out when `CC(C)(Cc1ccc(NCC(O)CON=C(C2CC2)C2CC2)cc1)NCC(O)CON=C(C1CC1)C1CC1` (stereo unspecified) [Dicyclopropyl-methanone O-(3-{2-[4-(3-dicyclopropylmethyleneaminooxy-2-hydroxy-propylamino)-phenyl]-1,1-dimethyl-ethylamino}-2-hydroxy-propyl)-oxime] was run?
The pIC50 was 5.82.

`OC(CNc1ccccc1I)CON=C(C1CC1)C1CC1` (stereo unspecified) [Dicyclopropyl-methanone O-[2-hydroxy-3-(2-iodo-phenylamino)-propyl]-oxime] was tested. Which pIC50 did it give?
The pIC50 was under 5.00.

How did the pIC50 turn out when `CC(C)(Cc1ccc(NCC(O)CO[N-][C+](C2CC2)C2CC2)cc1)[N+](=O)[O-]` (stereo unspecified) [Dicyclopropyl-methanone O-{2-hydroxy-3-[4-(2-methyl-2-nitro-propyl)-phenylamino]-propyl}-oxime] was run?
Its pIC50 is under 5.00.

`O=[N+]([O-])c1ccc(NCC(O)CO[N-][C+](C2CC2)C2CC2)cc1` (stereo unspecified) [Dicyclopropyl-methanone O-[2-hydroxy-3-(4-nitro-phenylamino)-propyl]-oxime] was tested. Which pIC50 did it give?
Its pIC50 is under 5.00.

`Cc1cccc(NCC(O)CON=C(C2CC2)C2CC2)c1` (stereo unspecified) [Dicyclopropyl-methanone O-(2-hydroxy-3-m-tolylamino-propyl)-oxime] was tested. Which pIC50 did it give?
The pIC50 was under 5.00.

With `Cc1cccc(NCC(O)CON=C(C2CC2)C2CC2)n1` (stereo unspecified) [Dicyclopropyl-methanone O-[2-hydroxy-3-(6-methyl-pyridin-2-ylamino)-propyl]-oxime] as the compound, how does the pIC50 read?
Its pIC50 is under 5.00.

With `OC(CNc1ccncc1)CON=C(C1CC1)C1CC1` (stereo unspecified) [Dicyclopropyl-methanone O-[2-hydroxy-3-(pyridin-4-ylamino)-propyl]-oxime] as the compound, how does the pIC50 read?
Its pIC50 is under 5.00.

With `OC(CNc1ccccc1)CON=C(C1CC1)C1CC1` (stereo unspecified) [Dicyclopropylmethanone O-(3-anilino-2-hydroxypropyl)oxime] as the compound, how does the pIC50 read?
Its pIC50 is under 5.00.

How did the pIC50 turn out when `OC(CNc1ccccn1)CON=C(C1CC1)C1CC1` (stereo unspecified) [Dicyclopropyl-methanone O-[2-hydroxy-3-(pyridin-2-ylamino)-propyl]-oxime] was run?
The pIC50 was under 5.00.

With `Cc1ccccc1NCC(O)CON=C(C1CC1)C1CC1` (stereo unspecified) [Dicyclopropyl-methanone O-(2-hydroxy-3-o-tolylamino-propyl)-oxime] as the compound, how does the pIC50 read?
Its pIC50 is under 5.00.

How did the pIC50 turn out when `Oc1ccc(NCC(O)CON=C(C2CC2)C2CC2)cc1` (stereo unspecified) [Dicyclopropyl-methanone O-[2-hydroxy-3-(4-hydroxy-phenylamino)-propyl]-oxime] was run?
The pIC50 was under 5.00.

With `OC(CNc1nc2ccccc2[nH]1)CON=C(C1CC1)C1CC1` (stereo unspecified) [Dicyclopropyl-methanone O-[3-(1H-benzoimidazol-2-ylamino)-2-hydroxy-propyl]-oxime] as the compound, how does the pIC50 read?
The pIC50 was under 5.00.

How did the pIC50 turn out when `OC(CNc1ccc(F)cc1)CON=C(C1CC1)C1CC1` (stereo unspecified) [Dicyclopropyl-methanone O-[3-(4-fluoro-phenylamino)-2-hydroxy-propyl]-oxime] was run?
The pIC50 was under 5.00.

`CC(C)(N)Cc1ccc(NCC(O)CON=C(C2CC2)C2CC2)cc1` (stereo unspecified) [Dicyclopropyl-methanone O-{3-[4-(2-amino-2-methyl-propyl)-phenylamino]-2-hydroxy-propyl}-oxime] was tested. Which pIC50 did it give?
Its pIC50 is under 5.00.

`CN(CC(O)CON=C(C1CC1)C1CC1)c1ccccc1` (stereo unspecified) [Dicyclopropyl-methanone O-[2-hydroxy-3-(methyl-phenyl-amino)-propyl]-oxime] was tested. Which pIC50 did it give?
Its pIC50 is under 5.00.

`OC(CNc1cccc(I)c1)CON=C(C1CC1)C1CC1` (stereo unspecified) [Dicyclopropyl-methanone O-[2-hydroxy-3-(3-iodo-phenylamino)-propyl]-oxime] was tested. Which pIC50 did it give?
Its pIC50 is under 5.00.

`OC(CNc1ccc(C(F)(F)F)cc1)CON=C(C1CC1)C1CC1` (stereo unspecified) [Dicyclopropyl-methanone O-[2-hydroxy-3-(4-trifluoromethyl-phenylamino)-propyl]-oxime] was tested. Which pIC50 did it give?
The pIC50 was under 5.00.

With `OC(CNc1ccc(-c2ccccc2)cc1)CON=C(C1CC1)C1CC1` (stereo unspecified) [Dicyclopropyl-methanone O-[3-(biphenyl-4-ylamino)-2-hydroxy-propyl]-oxime] as the compound, how does the pIC50 read?
The pIC50 was under 5.00.
